Source: US7476649B2, “Antiproliferative and antiviral proteins and peptides” (priority 1998, dated 2009)
Values after ≈ are worked out from the molar mass of the structure shown. Read-outs that look alike come from different tables or passages of the source.

What was measured:
[1] = system: human embryonic lung cell line MRC-5
[2] = system: type 1 herpes (HSV-1), strain McKrae; assay type: cell-based, Herpes Simplex Type I
[3] = system: type 1 herpes (HSV-1), strain McKrae; assay type: cell-based, Herpes Simplex Type I; remark: listed apart in the source
[4] = system: African green monkey cells (CV-1)
[5] = system: African green monkey cells (CV-1); remark: listed apart in the source
[6] = system: San Angelo (SAV); test: microbe, parasite or virus in culture; assay type: cell-based, San Angelo virus
[7] = system: San Angelo (SAV); assay type: cell-based, San Angelo virus
[8] = in vitro; conditions: African green monkey
[9] = in vitro; conditions: African green monkey; remark: listed apart in the source
[10] = in vitro; conditions: African green monkey; remark: listed apart in the source
[11] = in vitro; conditions: African green monkey; remark: listed apart in the source

With `Nc1nc2c(ncn2COCCO)c(=O)[nH]1` [Acyclovir, acyclovir] the CC50 [1] was greater than 100 µg/mL, the “COMMENT (activity)” value [2] was “Excellent activity” and the “COMMENT (activity)” value [3] was “Excellent activity”.
`Nc1ccn(C[C@@H](CO)OCP(=O)(O)O)c(=O)n1` [HPMPC, cidofovir] showed a CC50 [4] greater than 100 µg/mL and a CC50 [5] greater than 100 µg/mL.
In the case of `NC(=O)c1ncn([C@@H]2O[C@H](CO)[C@@H](O)[C@H]2O)n1` [Ribavirin, ribavirin], the “COMMENT (activity)” value [6] is reported as “Very good activity”, the EC50 ([6]; San Angelo virus, Vero) is reported as 30 µg/mL (≈ 123 µM) and the “COMMENT (activity)” value [7] is reported as “Very good activity”. For the same compound, the CC50 [8] was greater than 100 µg/mL, the CC50 [9] was greater than 100 µg/mL and the CC50 [10] was greater than 100 µg/mL. The CC50 [11] was greater than 100 µg/mL.
